Measurements from patent US10559456B2, “Systems and methods for analyzing an extracted sample using an immiscible extraction solvent” (priority 2014, dated 2020).
Several values for one entry are separate records, joined by “and”; a condition that tells them apart may be missing. Identical values can stand only once.

Tests used:
[1] = Log P=log([solute]octanol/[solute]water), un-ionized compound; cited from earlier work
[2] = system: cholinesterase (ChE); conditions: human whole blood diluted 10 times, acetylthiocholine 1.8 mg/mL, 5 min incubation in capillary, room temperature
Procedure: For testing of a particular solvent, 5 μL blood sample (diluted) was injected into the capillary with the extraction solvent plug immediately after the mixing the acetylthiocholine into the blood. After the 5 min incubation in capillary, the TCh/ATch ratio was measured using SFME nanoESI MS. For the control, 5 min after the mixing acetylthiocholine into the diluted blood, the sample was taken and analyzed immediately using SFME nanoESI MS with ethyl acetate as the extraction phase. Spray voltage of 1.5 kV was used for nanoESI.
SFME-nanoESI was applied for monitoring the enzymatic activity of cholinesterase (ChE) in whole blood samples. […] The blood sample was diluted 10 times to slow down the reaction rate as well as to facilitate the slug flows for SFME. The substrate acetylthiocholine iodine was added into the diluted blood sample at a concentration of 1.8 mg/mL, and then 5 μL sample was taken immediately and injected into the capillary with 5 μL extraction phase. The capillary with the sample and the extraction solvent was left in room temperature 25° C. for incubation. The SFME-nanoESI could be performed repeatedly on the same sample and the ratio of the substrate ATCh and the reaction product TCh could be monitored as a function of time to characterize the enzymatic activity of the ChE. […]

Structure (SMILES)	Partition coefficient Log P [1]	reduction of ChE activity due to contact with extraction solvent [2]
N[C@@H](Cc1ccccc1)C(=O)O [phenylalanine]	−1.38	–
ClC(Cl)Cl [chloroform]	–	more than 60%
CN[C@@H](C)Cc1ccccc1 [methamphetamine]	2.1	–
CN1[C@H]2CC[C@@H]1[C@@H](C(=O)O)[C@@H](OC(=O)c1ccccc1)C2 [benzoylecgonine]	−0.6 and −0.59	–
CCOC(C)=O [ethyl acetate]	–	minimal
